Data taken from patent US20260201008A1, “SECRETIN-DERIVED GLP1R SELECTIVE AGONISTS” (GUBRA A/S, priority 2023, published 2026).
Like-named read-outs stand apart in the source and are kept apart here. Blank lines part the entries; values can stand above or below the compound they belong to. Numbered stars: 1 amine (or outer) side, 2 acyl side, 3 side chain; on linkers, the order of the positions; unused ones are H or OH. Square brackets hold non-standard residues; d marks the D form. Side chains are listed from the residue outwards. Peptide text beside a SMILES is read from it. * marks the point of attachment. C20 diacid = O=C(O)CCCCCCCCCCCCCCCCCCC(=O)*; γGlu = O=C(O)[C@H](CCC(=O)[*:2])N[*:1]; AEEA = NCCOCCOCC(=O)O; Aib = CC(C)(N)C(=O)O

How the values were obtained:
[1] = biological target: GLP1R (Homo sapiens, UniProt P43220); experiment: hGLP1R potency, cAMP accumulation in CHO-K1 cells stably overexpressing hGLP1R; format: cell-based; set-up: host or cells: CHO-K1; conditions: for EC50: cAMP accumulation, CHO-K1 cells overexpressing hGLP1R; for SCTR EC50/GLP1R EC50 ratio: selectivity for hGLP1R over hSCTR, cAMP accumulation in CHO-K1 cells; for Selectivity: SCTR EC50/GLP1R EC50 ratio
Procedure, shortened: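 Thawed cells go straight into buffer containing 0.5 mM IBMX and 0.05% casein, get graded compound doses for 30 min at room temperature, and are then assayed for accumulated cAMP by time-resolved FRET. Human GLP-1(7-36) serves as positive control; EC50 is derived by nonlinear regression.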

[2] = Fibril formation of crude library peptides (Thioflavin T); format: physicochemical; set-up: key: average ThT fluorescence emission at 480 nm (ex 450 nm), raw units; conditions: Physical stability of peptides
Procedure, shortened: (§1)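 Crude peptides at 267 μM in 50 mM sodium acetate pH 4.0 or 50 mM sodium phosphate pH 7.0, pre-incubated 1-2 h at room temperature, then 4 μM final ThT added. Turbidity read first as A600. ThT fluorescence (ex 450/em 480 nm) read every 10 min for 72 h at 40° C, with 5 min shaking before each read; fibril formation = average emission.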

[3] = biological target: SCTR (Homo sapiens, UniProt P47872); experiment: hSCTR potency, cAMP accumulation in CHO-K1 cells stably overexpressing hSCTR; format: cell-based; set-up: alternatively Euroscreen ES-712-AF; FAST-0161L; host or cells: CHO-K1; conditions: cAMP accumulation, CHO-K1 cells overexpressing hSCTR
Procedure, shortened: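 Read-out is TR-FRET cAMP detection, recorded one hour after reagent addition, in CHO-K1 cells stably overexpressing hSCTR. Cells in DPBS containing 0.05% casein and 0.5 mM IBMX are exposed to graded peptide doses for 30 min at room temperature, with human secretin as reference agonist.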

[4] = Turbidity of crude library peptides (absorbance at 600 nm); format: physicochemical; conditions: Physical stability of peptides
Procedure, shortened: as §1

[5] = read-out: hGLP1R pEC50 (converted)
[6] = read-out: hSCTR pEC50 (converted)
[7] = read-out: pEC50 hGLPR1 (converted)
[8] = read-out: pEC50 hSCTR (converted)

GLP1R, sequence (P43220 24-463): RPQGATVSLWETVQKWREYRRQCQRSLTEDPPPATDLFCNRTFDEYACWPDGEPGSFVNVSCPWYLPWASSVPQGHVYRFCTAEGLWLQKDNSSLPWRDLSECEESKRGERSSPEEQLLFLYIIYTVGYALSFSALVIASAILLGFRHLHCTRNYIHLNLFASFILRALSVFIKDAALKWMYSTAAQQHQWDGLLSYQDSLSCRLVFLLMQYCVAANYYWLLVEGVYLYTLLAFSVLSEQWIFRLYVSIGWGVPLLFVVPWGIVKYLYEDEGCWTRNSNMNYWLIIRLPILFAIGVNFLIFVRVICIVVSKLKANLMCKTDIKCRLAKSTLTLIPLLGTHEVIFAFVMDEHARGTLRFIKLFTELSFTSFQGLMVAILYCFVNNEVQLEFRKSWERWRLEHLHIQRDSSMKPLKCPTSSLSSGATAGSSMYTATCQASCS
SCTR, sequence (P47872 23-440): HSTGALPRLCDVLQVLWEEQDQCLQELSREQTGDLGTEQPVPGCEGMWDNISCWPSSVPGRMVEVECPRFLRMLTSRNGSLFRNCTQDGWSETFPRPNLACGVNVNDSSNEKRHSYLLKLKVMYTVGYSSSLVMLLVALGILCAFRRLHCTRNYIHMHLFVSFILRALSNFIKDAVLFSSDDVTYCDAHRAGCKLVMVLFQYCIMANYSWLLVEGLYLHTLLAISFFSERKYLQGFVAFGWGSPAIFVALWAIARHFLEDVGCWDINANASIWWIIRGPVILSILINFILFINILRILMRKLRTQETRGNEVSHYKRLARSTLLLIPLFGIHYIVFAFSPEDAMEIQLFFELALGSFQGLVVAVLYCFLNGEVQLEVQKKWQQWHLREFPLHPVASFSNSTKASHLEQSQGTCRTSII

Compound: CC(C)C[C@H](NC(=O)[C@H](Cc1ccccc1)NC(=O)[C@H](CCCNC(=N)N)NC(=O)[C@H](CCC(N)=O)NC(=O)[C@H](CO)NC(=O)[C@H](C)NC(=O)[C@H](C)NC(=O)C(C)(C)NC(=O)[C@H](CCC(=O)O)NC(=O)[C@H](CCCCNC(=O)COCCOCCNC(=O)COCCOCCNC(=O)CC[C@H](NC(=O)CCCCCCCCCCCCCCCCCCC(=O)O)C(=O)O)NC(=O)[C@H](CC(C)C)NC(=O)[C@H](Cc1ccccc1)NC(=O)[C@H](CO)NC(=O)[C@@H](NC(=O)[C@H](CC(=O)O)NC(=O)[C@H](CO)NC(=O)[C@@H](NC(=O)[C@H](Cc1ccccc1)NC(=O)[C@@H](NC(=O)CNC(=O)[C@H](CCC(=O)O)NC(=O)C(C)(C)NC(=O)[C@@H](N)Cc1c[nH]cn1)[C@@H](C)O)[C@@H](C)O)C(C)C)C(=O)N[C@@H](CCC(=O)O)C(=O)N[C@@H](Cc1c[nH]cn1)C(=O)N[C@@H](CC(C)C)C(=O)N[C@H](C(N)=O)C(C)C [compound 74] (H-H[Aib]EGTFTSDVSFLK([AEEA-AEEA-γGlu-C20 diacid])E[Aib]AASQRFLEHLV-NH2)
Selectivity [1]: 231739
EC50 [1, 7]: 0.0631 nM
Fibril formation [2]: 12039
EC50 [3, 8]: 12600 nM
Turbidity (pH 7) [4]: 0.08

Compound: CC(C)C[C@H](NC(=O)[C@H](Cc1ccccc1)NC(=O)[C@H](CCCNC(=N)N)NC(=O)[C@H](CCC(N)=O)NC(=O)[C@H](CC(C)C)NC(=O)C(C)(C)NC(=O)[C@H](C)NC(=O)[C@H](CCC(=O)O)NC(=O)[C@H](CCC(=O)O)NC(=O)[C@H](CCCCNC(=O)COCCOCCNC(=O)COCCOCCNC(=O)CC[C@H](NC(=O)CCCCCCCCCCCCCCCCCCC(=O)O)C(=O)O)NC(=O)[C@H](CC(C)C)NC(=O)[C@@H](NC(=O)[C@H](CO)NC(=O)[C@@H](NC(=O)[C@H](CC(=O)O)NC(=O)[C@H](CO)NC(=O)[C@@H](NC(=O)[C@H](Cc1ccccc1)NC(=O)[C@@H](NC(=O)CNC(=O)[C@H](CCC(=O)O)NC(=O)C(C)(C)NC(=O)[C@@H](N)Cc1c[nH]cn1)[C@@H](C)O)[C@@H](C)O)C(C)C)C(C)C)C(=O)N[C@@H](CCC(=O)O)C(=O)N[C@@H](Cc1c[nH]cn1)C(=O)N[C@@H](CC(C)C)C(=O)N[C@H](C(N)=O)C(C)C [compound 138] (H-H[Aib]EGTFTSDVSVLK([AEEA-AEEA-γGlu-C20 diacid])EEA[Aib]LQRFLEHLV-NH2)
EC50 [1, 5]: 0.0126 nM
SCTR EC50/GLP1R EC50 ratio [1]: 2569
Fibril formation [2]: 3306
EC50 [3, 6]: 31.6 nM
Turbidity (pH 7) [4]: 0.09

Compound: CC(C)C[C@H](NC(=O)[C@H](Cc1ccccc1)NC(=O)[C@H](CCCNC(=N)N)NC(=O)[C@H](CCC(N)=O)NC(=O)C(C)(C)NC(=O)[C@H](C)NC(=O)[C@H](C)NC(=O)C(C)(C)NC(=O)[C@H](CCC(=O)O)NC(=O)[C@H](CCCCNC(=O)COCCOCCNC(=O)COCCOCCNC(=O)CC[C@H](NC(=O)CCCCCCCCCCCCCCCCCCC(=O)O)C(=O)O)NC(=O)[C@H](CC(C)C)NC(=O)[C@@H](NC(=O)[C@H](CO)NC(=O)[C@@H](NC(=O)[C@H](CC(=O)O)NC(=O)[C@H](CO)NC(=O)[C@@H](NC(=O)[C@H](Cc1ccccc1)NC(=O)[C@@H](NC(=O)CNC(=O)[C@H](CCC(=O)O)NC(=O)C(C)(C)NC(=O)[C@@H](N)Cc1c[nH]cn1)[C@@H](C)O)[C@@H](C)O)C(C)C)[C@@H](C)O)C(=O)N[C@@H](CCC(=O)O)C(=O)N[C@@H](Cc1c[nH]cn1)C(=O)N[C@@H](CC(C)C)C(=O)N[C@H](C(N)=O)C(C)C [compound 32] (H-H[Aib]EGTFTSDVSTLK([AEEA-AEEA-γGlu-C20 diacid])E[Aib]AA[Aib]QRFLEHLV-NH2)
Selectivity [1]: 23147
EC50 [1, 7]: 0.0251 nM
Fibril formation [2]: 16551
EC50 [3, 8]: 631 nM
Turbidity (pH 7) [4]: 0.08

The remaining lines, values ahead:

EC50 [1, 5]: 0.00398 nM
SCTR EC50/GLP1R EC50 ratio [1]: 59910
Fibril formation [2]: 3233
EC50 [3, 6]: 251 nM
Turbidity (pH 7) [4]: 0.08
Compound: CC(C)C[C@H](NC(=O)[C@H](Cc1ccc(O)cc1)NC(=O)[C@H](CCCNC(=N)N)NC(=O)[C@H](CCC(N)=O)NC(=O)[C@H](CC(C)C)NC(=O)C(C)(C)NC(=O)[C@H](C)NC(=O)[C@H](CCC(=O)O)NC(=O)[C@H](CCC(=O)O)NC(=O)[C@H](CCCCNC(=O)COCCOCCNC(=O)COCCOCCNC(=O)CC[C@H](NC(=O)CCCCCCCCCCCCCCCCCCC(=O)O)C(=O)O)NC(=O)[C@H](CC(C)C)NC(=O)[C@H](Cc1ccc(O)cc1)NC(=O)[C@H](CO)NC(=O)[C@@H](NC(=O)[C@H](CC(=O)O)NC(=O)[C@H](CO)NC(=O)[C@@H](NC(=O)[C@H](Cc1ccccc1)NC(=O)[C@@H](NC(=O)CNC(=O)[C@H](CCC(=O)O)NC(=O)C(C)(C)NC(=O)[C@@H](N)Cc1c[nH]cn1)[C@@H](C)O)[C@@H](C)O)C(C)C)C(=O)N[C@@H](CCC(=O)O)C(=O)N[C@@H](Cc1c[nH]cn1)C(=O)N[C@@H](CC(C)C)C(=O)N[C@H](C(N)=O)C(C)C [compound 141] (H-H[Aib]EGTFTSDVSYLK([AEEA-AEEA-γGlu-C20 diacid])EEA[Aib]LQRYLEHLV-NH2)

EC50 [1, 5]: 0.0316 nM
SCTR EC50/GLP1R EC50 ratio [1]: 247885
Fibril formation [2]: 3296
EC50 [3, 6]: 7940 nM
Turbidity (pH 7) [4]: 0.08
Compound: CC[C@H](C)[C@H](NC(=O)C(C)(C)NC(=O)[C@@H](N)Cc1c[nH]cn1)C(=O)NCC(=O)N[C@H](C(=O)N[C@@H](Cc1ccccc1)C(=O)N[C@H](C(=O)N[C@@H](CO)C(=O)N[C@@H](CC(=O)O)C(=O)N[C@H](C(=O)N[C@@H](CO)C(=O)N[C@@H](Cc1ccc(O)cc1)C(=O)N[C@@H](CC(C)C)C(=O)N[C@@H](CCCCNC(=O)COCCOCCNC(=O)COCCOCCNC(=O)CC[C@H](NC(=O)CCCCCCCCCCCCCCCCCCC(=O)O)C(=O)O)C(=O)N[C@@H](CCC(=O)O)C(=O)N[C@@H](CCC(=O)O)C(=O)N[C@@H](C)C(=O)NC(C)(C)C(=O)N[C@@H](CC(C)C)C(=O)N[C@@H](CCC(N)=O)C(=O)N[C@@H](CCCNC(=N)N)C(=O)N[C@@H](Cc1ccccc1)C(=O)N[C@@H](CC(C)C)C(=O)N[C@@H](CCC(=O)O)C(=O)N[C@@H](Cc1c[nH]cn1)C(=O)N[C@@H](CC(C)C)C(=O)N[C@H](C(N)=O)C(C)C)C(C)C)[C@@H](C)O)[C@@H](C)O [compound 175] (H-H[Aib]IGTFTSDVSYLK([AEEA-AEEA-γGlu-C20 diacid])EEA[Aib]LQRFLEHLV-NH2)

EC50 [1, 5]: 0.0251 nM
SCTR EC50/GLP1R EC50 ratio [1]: 873474
Fibril formation [2]: 3337
EC50 [3, 6]: 25100 nM
Turbidity (pH 7) [4]: 0.08
Compound: CC(C)C[C@H](NC(=O)[C@H](Cc1ccccc1)NC(=O)[C@H](CCCNC(=N)N)NC(=O)[C@H](CCC(N)=O)NC(=O)[C@H](CC(C)C)NC(=O)C(C)(C)NC(=O)[C@H](C)NC(=O)[C@H](CCC(=O)O)NC(=O)[C@H](CCC(=O)O)NC(=O)[C@H](CCCCNC(=O)COCCOCCNC(=O)COCCOCCNC(=O)CC[C@H](NC(=O)CCCCCCCCCCCCCCCCCCC(=O)O)C(=O)O)NC(=O)[C@H](CC(C)C)NC(=O)[C@H](Cc1ccc(O)cc1)NC(=O)[C@H](CO)NC(=O)[C@@H](NC(=O)[C@H](CC(=O)O)NC(=O)[C@H](CO)NC(=O)[C@@H](NC(=O)[C@H](Cc1ccccc1)NC(=O)[C@@H](NC(=O)CNC(=O)[C@H](CC(C)C)NC(=O)C(C)(C)NC(=O)[C@@H](N)Cc1c[nH]cn1)[C@@H](C)O)[C@@H](C)O)C(C)C)C(=O)N[C@@H](CCC(=O)O)C(=O)N[C@@H](Cc1c[nH]cn1)C(=O)N[C@@H](CC(C)C)C(=O)N[C@H](C(N)=O)C(C)C [compound 170] (H-H[Aib]LGTFTSDVSYLK([AEEA-AEEA-γGlu-C20 diacid])EEA[Aib]LQRFLEHLV-NH2)

EC50 [1, 5]: 0.0794 nM
SCTR EC50/GLP1R EC50 ratio [1]: 5995
Fibril formation [2]: 22028
EC50 [3, 6]: 501 nM
Turbidity (pH 7) [4]: 0.55
Compound: CC[C@H](C)[C@H](NC(=O)[C@H](Cc1ccccc1)NC(=O)[C@H](CCCNC(=N)N)NC(=O)[C@H](CCC(N)=O)NC(=O)[C@H](CC(C)C)NC(=O)[C@H](C)NC(=O)[C@H](C)NC(=O)CNC(=O)[C@H](CCC(=O)O)NC(=O)[C@H](CC(C)C)NC(=O)[C@H](CC(C)C)NC(=O)C(C)(C)NC(=O)[C@H](CO)NC(=O)[C@@H](NC(=O)[C@H](CC(=O)O)NC(=O)[C@H](CO)NC(=O)[C@@H](NC(=O)[C@H](Cc1ccccc1)NC(=O)[C@@H](NC(=O)CNC(=O)[C@H](CCC(=O)O)NC(=O)C(C)(C)NC(=O)[C@@H](N)Cc1c[nH]cn1)[C@@H](C)O)[C@@H](C)O)C(C)C)C(=O)N[C@@H](CCC(N)=O)C(=O)N[C@@H](Cc1c[nH]c2ccccc12)C(=O)N[C@@H](CC(C)C)C(=O)N[C@H](C(N)=O)C(C)C [compound 179] (H-H[Aib]EGTFTSDVS[Aib]LLEGAALQRFIQWLV-NH2)
